The values that follow come from US7105534B2, “Imidazo[1,2-α]pyridine ether compounds as ion channel modulators” (Cardiome Pharma Corp., priority 2000, dated 2006).

Each structure is given as a SMILES string. Where a name gives a salt, the structure may show the parent alone.

One data set has as its target T1, Kv1.5 (Homo sapiens, UniProt P22460).
T1 construct: expressed in transfected cells; host or cells: HEK cells, transient transfection, vector pCDNA3
As to the kind of experiment: Patch-clamp inhibition of cloned ion channel current in transfected HEK cells: Kv1.5. It counts as cell-based. To be noted: steady-state current, -80 mV to +60 mV. The protocol: (§1) The relevant cloned ion channels (e.g. cardiac hH1, Kv1.4, Kv1.5, Kv4.2, Kv2.1, HERG etc.) are studied by transient transfection into HEK cells using the mammalian expression vector pCDNA3. Transfections for each channel type are carried out separately to allow individual study of the ion channel of interest. Cells expressing channel protein are detected by cotransfecting cells with the vector pHook-1 (Invitrogen, San Diego, Calif., USA). […] Equal concentrations of individual channel and pHook DNA are incubated with 10× concentration of lipofectAce in Modified Eagle's Medium (MEM, Canadian Life Technologies) and incubated with parent HEK cells plated on 25 mm culture dishes. After 3–4 hours the solution is replaced with a standard culture medium plus 20% fetal bovine serum and 1% antimycotic. Transfected cells are maintained at 37C in an air/5% CO2 incubator in 25 mm Petri dishes plated on glass coverslips for 24–48 hours to allow channel expression to occur. 20 min prior to experiments, cells are treated with beads coated with phOX. After 15 min, excess beads are […] off with cell culture medium and cells which had beads stuck to them are used for electrophysiological tests.
(§2) For whole-cell recording the control pipette filling solution contained (in mM): KCl, 130; EGTA, 5; MgCl2, 1; HEPES, 10; Na2ATP, 4; GTP, 0.1; and is adjusted to pH 7.2 with KOH. The control bath solution contained (in mM): NaCl, 135; KCI, 5; sodium acetate, 2.8; MgCl2, 1; HEPES, 10; CaCl2, 1; and is adjusted to pH 7.4 with NaOH. The test ion channel modulating compound is dissolved to 10 mM stock solutions in water and used at concentrations between 0.5 and 100 μM.
(§3) Coverslips containing cells are removed from the incubator before experiments and placed in a superfusion chamber (volume 250 μl) containing the control bath solution at 22C to 23C. All recordings are made via the variations of the patch-clamp technique, using an Axopatch 200A amplifier (Axon Instruments, CA). Patch electrodes are pulled from thin-walled borosilicate glass (World Precision Instruments; FL) on a horizontal micropipette puller, fire-polished, and filled with appropriate solutions. Electrodes had resistances of […] when filled with control filling solution. Analog capacity compensation is used in all whole cell measurements. In some experiments, leak subtraction is applied to data. Membrane potentials have not been corrected for any junctional potentials that arose between the pipette and bath solution. Data are filtered at 5 to 10 kHz before digitization and stored on a microcomputer for later analysis using the pClamp6 software (Axon Instruments, Foster City, Calif.). Due to the high level of expression of channel cDNA's in HEK cells, there is no need for signal averaging. The average cell capacitance is quite small, and the absence of ionic current at negative membrane potentials allowed faithful leak subtraction of data.
(§4) The concentration-response curves for changes in peak and steady-state current produced by the test compound are computer-fitted to the Hill equation: f=1−1/[1+([…])^n] [1]
(§5) where f is the fractional current (f=Idrug/Icontrol) at drug concentration [D]; IC50 is the concentration producing half-maximal inhibition and n is the Hill coefficient.
(§6) Compounds of the present invention may be evaluated by this method. […] Block is determined from the decrease in peak hH1 Na^+ current, or in steady-state Kv1.5 and integrated Kv4.2 current in the presence of drug. To record Na^+ current, cells are depolarized from the holding potential of −100 mV to a voltage of −30 mV for 10 ms to fully open and inactivate the channel. To record Kv1.5 and Kv4.2 current, cells are depolarized from the holding potential of −80 mV to a voltage of +60 mV for 200 ms to fully open the channel. Currents are recorded in the steady-state at a range of drug concentrations during stimulation every 4 s. […]
(Patch clamp records ionic current or voltage across a cell membrane.)

In the next data set the target is T2, HERG (Homo sapiens, UniProt Q12809).
T2 construct: expressed in transfected cells; host or cells: HEK cells, transient transfection, vector pCDNA3
T2 sequence (Q12809 whole entry): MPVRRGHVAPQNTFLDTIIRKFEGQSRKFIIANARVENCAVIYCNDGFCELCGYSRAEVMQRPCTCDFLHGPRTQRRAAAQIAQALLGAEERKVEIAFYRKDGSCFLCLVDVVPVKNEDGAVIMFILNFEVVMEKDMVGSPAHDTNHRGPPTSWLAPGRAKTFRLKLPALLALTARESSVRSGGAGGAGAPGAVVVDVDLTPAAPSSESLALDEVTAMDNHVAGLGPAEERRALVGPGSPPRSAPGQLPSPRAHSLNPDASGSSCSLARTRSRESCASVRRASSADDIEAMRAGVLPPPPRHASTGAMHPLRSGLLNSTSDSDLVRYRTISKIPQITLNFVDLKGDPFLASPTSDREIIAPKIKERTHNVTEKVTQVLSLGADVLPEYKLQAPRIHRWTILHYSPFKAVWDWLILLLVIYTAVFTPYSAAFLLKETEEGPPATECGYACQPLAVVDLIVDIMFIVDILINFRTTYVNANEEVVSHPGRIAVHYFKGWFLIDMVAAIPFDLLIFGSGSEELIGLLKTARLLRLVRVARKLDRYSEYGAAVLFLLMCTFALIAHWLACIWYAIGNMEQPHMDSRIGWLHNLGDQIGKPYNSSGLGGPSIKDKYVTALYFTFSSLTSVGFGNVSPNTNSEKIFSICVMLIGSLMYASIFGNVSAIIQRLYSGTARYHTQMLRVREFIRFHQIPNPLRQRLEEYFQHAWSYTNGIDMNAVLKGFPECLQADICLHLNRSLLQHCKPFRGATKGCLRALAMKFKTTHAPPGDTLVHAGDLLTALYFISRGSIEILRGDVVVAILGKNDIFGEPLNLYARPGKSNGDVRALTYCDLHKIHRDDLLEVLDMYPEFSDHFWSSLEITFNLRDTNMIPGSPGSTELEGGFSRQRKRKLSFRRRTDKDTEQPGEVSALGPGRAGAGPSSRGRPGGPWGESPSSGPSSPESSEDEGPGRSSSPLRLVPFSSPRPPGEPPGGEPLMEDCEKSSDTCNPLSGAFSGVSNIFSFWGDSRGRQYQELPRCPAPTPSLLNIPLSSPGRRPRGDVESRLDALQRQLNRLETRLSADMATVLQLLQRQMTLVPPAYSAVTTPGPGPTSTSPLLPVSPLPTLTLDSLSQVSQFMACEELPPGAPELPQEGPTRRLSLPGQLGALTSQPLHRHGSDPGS
Briefly: Patch-clamp inhibition of cloned ion channel current in transfected HEK cells: HERG. To be noted: whole-cell patch clamp. It is filed as cell-based. How it is done: as §1, §2, §3, §4, §5, §6

T1 sequence (P22460 whole entry): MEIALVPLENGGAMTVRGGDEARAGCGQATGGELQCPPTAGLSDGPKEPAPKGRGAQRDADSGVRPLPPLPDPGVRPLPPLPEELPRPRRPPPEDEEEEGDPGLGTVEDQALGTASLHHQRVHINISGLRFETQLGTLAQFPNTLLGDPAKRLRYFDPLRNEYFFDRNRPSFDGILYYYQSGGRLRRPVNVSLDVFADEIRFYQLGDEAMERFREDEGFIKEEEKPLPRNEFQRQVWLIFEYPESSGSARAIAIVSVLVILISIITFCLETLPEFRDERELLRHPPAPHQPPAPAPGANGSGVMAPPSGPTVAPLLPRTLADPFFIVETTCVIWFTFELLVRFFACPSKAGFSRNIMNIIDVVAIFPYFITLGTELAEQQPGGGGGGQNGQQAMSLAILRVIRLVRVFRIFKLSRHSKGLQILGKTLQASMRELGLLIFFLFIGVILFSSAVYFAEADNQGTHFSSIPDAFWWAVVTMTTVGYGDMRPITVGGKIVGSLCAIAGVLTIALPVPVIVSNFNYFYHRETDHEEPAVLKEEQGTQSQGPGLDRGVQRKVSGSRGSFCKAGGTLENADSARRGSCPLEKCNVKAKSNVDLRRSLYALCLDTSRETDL

As for `Cc1nc2c(OCCCc3ccc(Cl)cc3Cl)cccn2c1CO` [Compound 21, {8-[3-(2,4-DICHLOROPHENYL)PROPOXY]-2-METHYLIMIDAZO[1,2-α]PYRIDIN-3-yl}METHANOL MMONOHYDROCHLORIDE], the IC50 (commonly the concentration needed to halve the response being measured) at Kv1.5 is 2 µM; on HERG, 0.06 µM.
On the same counts, the results for `Cc1nc2c(OCCCc3ccc(Cl)cc3Cl)cccn2c1C(=O)O` [Compound 37, SODIUM 8-[3-(2,4-DICHLOROPHENYL)PROPOXY]-2-METHYLIMIDAZO[1,2-α]PYRIDINE-3-CARBOXYLATE] are 18 µM and 4 µM.
In the same order, the values of `Cc1nc2c(OCC3(c4ccccc4)CC3)cccn2c1CN(C)C` [Compound 40, 3-(DIMETHYLAMINO)METHYL-2-METHYL-8-[(1-PHENYL-CYCLOPROPYL)METHOXY]-IMIDAZO[1,2-α]PYRIDINE DIHYDROCHLORIDE] are 23 µM and 1 µM.
For `Cc1nc2c(OCCCc3ccc(Cl)cc3Cl)cccn2c1CN(C)C` [Compound 25, 8-[3-(2,4-DICHLOROPHENYL)PROPOXY]-3-[(DIMETHYLAMINO)METHYL]-2-METHYLIMIDAZO[1,2-α]PYRIDINE DIHYDROCHLORIDE], the IC50 against Kv1.5 is 8 µM; against HERG, 0.1 µM.
As to `Cc1cn2ccc(C)c(OCC3(c4ccccc4)CC3)c2n1` [Compound 17, 2,7-DIMETHYL-8-[(1-PHENYL-CYCLOPROPYL)METHOXY]IMIDAZO[1,2-α]PYRIDINE MONOHYDROCHLORIDE], the IC50 was 4 µM at Kv1.5 and 1 µM against HERG.
`CC(=O)Nc1c(C)nc2c(OCCCc3ccc(Cl)cc3Cl)cccn12` [Compound 41, 3-ACETAMIDO-8-[3-(2,4-DICHLOROPHENYL)PROPOXY]-2-METHYLIMIDAZO[1,2-α]PYRIDINE MONOHYDROCHLORIDE]: the IC50 against Kv1.5 came to 5 µM; on HERG, 0.6 µM.
Consider `CC(C)c1cn2cccc(OCCCc3ccc(Cl)cc3Cl)c2n1` [Compound 20, 8-[3-(2,4-DICHLOROPHENYL)PROPOXY]-2-ISOPROPYLIMIDAZO[1,2-α]PYRIDINE MONOHYDROCHLORIDE], for which the figures for the IC50 at Kv1.5 and against HERG were 0.2 µM and 0.1 µM, respectively.
As to `CNCc1c(C)nc2c(OCCCc3ccc(Cl)cc3Cl)cccn12` [Compound 24, 8-[3-(2,4-DICHLOROPHENYL)PROPOXY]-3-[(METHYLAMINO)METHYL]-2-METHYL-IMIDAZO[1,2-α]PYRIDINE DIHYDROCHLORIDE], the IC50 on Kv1.5 came out at 2 µM; against HERG it was 0.2 µM.
On the same counts, the results for `CC(C)c1cn2cccc(OCC3(c4ccccc4)CC3)c2n1` [Compound 38, 2-ISOPROPYL-8-[(1-PHENYL-CYCLOPROPYL)METHOXY]IMIDAZO[1,2-α]PYRIDINE MONOHYDROCHLORIDE] are 0.4 µM and 1 µM.
On the same counts, the results for `Cc1cn2c(C)ccc(OCCCc3ccc(Cl)cc3Cl)c2n1` [Compound 34, 8-[3-(2,4-DICHLOROPHENYL)PROPOXY]-2,5-DIMETHYLIMIDAZO[1,2-α]PYRIDINE MONOHYDROCHLORIDE] are 1 µM and 0.04 µM.
On the same counts, the results for `Clc1ccc(CCCOc2cccn3c4c(nc23)CCCC4)c(Cl)c1` [Compound 27, 4-[3-(2,4-DICHLOROPHENYL)PROPOXY]-6,7,8,9-TETRAHYDROBENZO[4,5]IMIDAZO-[1,2-α]PYRDINE MMONOHYDROCHLORIDE] are 0.6 µM and 0.1 µM.
As for `Cc1nc2c(OCC3(c4ccccc4)CC3)cccn2c1CO` [Compound 31, {2-METHYL-8-[(1-PHENYLCYCLOPROPYL)METHOXY]IMIDAZO[1,2-α]PYRIDIN-3-yl}-METHANOL MONOHYDROCHLORIDE], the IC50 against Kv1.5 worked out at 4 µM; against HERG, 3 µM.
Consider `Cc1nc2c(OCCCc3ccc(Cl)cc3Cl)cccn2c1Br` [Compound 19, 3-BROMO-8-[3-(2,4-DICHLOROPHENYL)PROPOXY]-2-METHYLIMIDAZO[1,2-α]PYRIDINE MONOHYDROCHLORIDE], for which the IC50 stood at 0.3 µM against Kv1.5 and 0.4 µM against HERG.
Regarding `Cc1nc2c(OCCCc3ccc(Cl)cc3Cl)cccn2c1Cl` [Compound 22, 3-CHLORO-8-[3-(2,4-DICHLOROPHENYL)PROPOXY]-2-METHYLI[1,2-α]PYRIDINE MMONOHYDROCHLORIDE], the concentration for half-maximal inhibition (IC50) is 0.4 µM on Kv1.5 and 1 µM against HERG.
For `Cc1cn2ccc(C)c(OCCCc3ccc(Cl)cc3Cl)c2n1` [Compound 14, 8-[3-(2,4-DICHLOROPHENYL)PROPOXY]-2,7-DIMETHYLIMIDAZO[1,2-α]PYRIDINE MONOHYDROCHLORIDE], on Kv1.5, the midpoint of inhibition, the IC50, lay at 0.7 µM.
Regarding `Cc1cn2ccc(C)c(OCCCc3ccccc3)c2n1` [Compound 18, 2,7-DIMETHYL-8-[3-PHENYLPROPRXY]IMIDAZO[1,2-α]PYRIDINE MONOHYDROCHLORIDE], the IC50 turned out to be 3 µM at Kv1.5 and 1 µM against HERG.
In the same order, the values of `Cc1cn2c(C)ccc(OCCCc3ccccc3)c2n1` [Compound 32, 2,5-DIMETHYL-8-(3-PHENYLPROPOXY)IMIDAZO[1,2-α]PYRIDINE MONOHYDROCHLORIDE] are 4 µM and 0.3 µM.
In the same order, the values of `Clc1ccc(CCCOc2cccn3c4c(nc23)CCC4)c(Cl)c1` [Compound 29, 7-[3-(2,4-DICHLOROPHENYL)PROPOXY]-2,3-DIHYDRO-1H-3b,8-DIAZOCYCLOPENTA[a]indene MMONOHYDROCHLORIDE] are 0.7 µM and 0.08 µM.
With `Cc1nc2c(OCC3(c4ccccc4)CC3)cccn2c1Cl` [Compound 39, 3-CHLORO-2-METHYL-8-[(1-PHENYL-CYCLOPROPYL)METHOXY]IMIDAZO[1,2-α]PYRIDINE MONOHYDROCHLORIDE], the half-maximal inhibitory concentration (IC50) against Kv1.5 was found to be 0.7 µM; at HERG, 3 µM.
In the same order, the values of `FC(F)(F)c1cn2cccc(OCC3(c4ccccc4)CC3)c2n1` [Compound 23, 8-[(1-PHENYLCYCLOPROPYL)METHOXY]-2-(TRIFLUOROMETHYL)IMIDAZO[1,2-α]PYRIDINE MMONOHYDROCHLORIDE] are 3 µM and 9 µM.
On the same counts, the results for `Cc1cn2c(C)ccc(OCC3(c4ccccc4)CC3)c2n1` [Compound 33, 2,5-DIMETHYL-8-[(1-PHENYL-CYCLOPROPYL)METHOXY]IMIDAZO[1,2-α]PYRIDINE MONOHYDROCHLORIDE] are 3 µM and 0.9 µM.
On to `Cc1nc2c(OCC3(c4ccccc4)CC3)cccn2c1N` [Compound 43, 3-AMINO-2-METHYL-8-[(1-PHENYL-CYCLOPROPYL)METHOXy]IMIDAZO[1,2-α]PYRIDINE MONOHYDROCHLORIDE], for which the results for the IC50 against Kv1.5 and on HERG were 1.6 µM and 0.7 µM, respectively.
On to `Cc1nc2c(OCC3(c4ccccc4)CC3)cccn2c1Br` [Compound 28, 3-BROMO-2-METHYL-8-[(1-PHENYL-CYCLOPROPYL)METHOXY]IMIDAZO[1,2-α]PYRIDINE MMONOHYDROCHLORIDE], for which the concentration for half-maximal inhibition (IC50) at Kv1.5 worked out at 0.8 µM; against HERG, 2 µM.
As to `Cc1nc2c(OCCCc3ccc(Cl)cc3Cl)cccn2c1N` [Compound 26, 3-AMINO-8-[3-(2,4-DICHLOROPHENYL)PROPOXY]-2-METHYLIMIDAZO[1,2-α]PYRIDINE DIHYDROCHLORIDE], the results for the IC50 on Kv1.5 and at HERG were 0.8 µM and 0.2 µM, respectively.
In the same order, the values of `CCOC(=O)c1c(C)nc2c(OCC3(c4ccccc4)CC3)cccn12` [Compound 30, ETHYL 2-METHYL-8-[(1-PHENYL-CYCLOPROPYL)METHOXY]IMIDAZO[1,2-α]PYRIDINE-3-CARBOXYLATE MMONOHYDROCHLORIDE] are 1 µM and 2 µM.
